From patent US7001897B2, “1-methylcarbapenem derivatives” (Sankyo Company, Limited, priority 2000, dated 2006)
Values after ≈ are worked out from the molar mass of the structure shown.

Tests used:
[1] = system: Haemophilis influenzae strain 9787 (a strain producing β-lactamase); test: In vitro antibacterial activity, agar plate dilution method; format: cell-based; details: C: Haemophilis influenzae strain 9787 (β-lactamase producing); agar plate dilution; read-out: Minimum Concentration to Inhibit Growth of the Employed Bacteria C
Protocol: (§1) To assess the antibacterial activities of the compounds, the minimum concentrations (μg/ml) of the compounds to inhibit growth of various pathogenic bacteria were determined by agar plate dilution method. In this Table, the employed bacteria A, B, and C were as follow: • A: Staphylococcus aureus • B: Streptococcus pneumoniae • C: Haemophilis influenzae strain 9787 (a strain producing β-lactamase)

Staphylococcus aureus = test: as above; format: cell-based; details: A: Staphylococcus aureus; agar plate dilution; read-out: Minimum Concentration to Inhibit Growth of the Employed Bacteria A
Protocol: as §1

Streptococcus pneumoniae = test: as above; format: cell-based; details: B: Streptococcus pneumoniae; agar plate dilution; read-out: Minimum Concentration to Inhibit Growth of the Employed Bacteria B
Protocol: as §1

[2] = system: S. pneumoniae 9605 (PRSP); test: In vivo antibacterial activity, intraperitoneal infection of mice; details: Streptococcus pneumoniae, 168 h; male ddY mice, i.p. S. pneumoniae 9605 (PRSP), single subcutaneous treatment, Probit method from survival rates 7 days after infection
Protocol: Male ddY mice of 4 weeks old (purchased from SLC Japan) were intraperitoneally inoculated with S. pneumoniae 9605 (PRSP) at a volume of 0.2 ml (containing 5% mucin, 1-5×10^3 colony forming unit (cfu)/mouse). Immediately after the mice were infected, they were subcutaneously treated with the test compound singly at a volume of 0.1 ml. Seven mice were used per group. A solution of the test compound prepared by 2-step dilution was used for the experiment. ED50 values of the compounds were calculated by the Probit method from survival rates 7 days after infection.

[3] = Pharmacokinetics, plasma concentration by bioassay after subcutaneous injection; format: in vivo; details: mouse, sc, mice (ddY, male), 20 mg/kg subcutaneous; for AUC: read-out: AUCall (area under the concentration-time curve in plasma); for Cmax: read-out: Cmax (maximal plasma concentration); for half-life: read-out: T1/2 (half-life in plasma concentration) (converted)
Protocol: The compounds of the present invention compound (20 mg/kg) was subcutaneously injected to mice (n=3, ddY, male, purchased from SLC Japan). The plasma concentration of the compound was determined by a bioassay method at 5, 15, and 30 min, and 1, 1.5, and 2 hr after administration. In the Table, Cmax, T1/2, and AUCall indicate the maximal plasma concentration, half-life in plasma concentration, and area under the concentration-time curve in plasma of the compound, respectively.

MIC [1] | MIC (Staphylococcus aureus) | MIC (Streptococcus pneumoniae) | AUC [3] | Cmax [3] | half-life [3] | Compound | ED50 [2]
0.39 µg/mL (≈ 0.834 µM) | 0.025 µg/mL (≈ 0.0535 µM) | 0.2 µg/mL (≈ 0.428 µM) | – | – | – | C[C@@H](O)[C@H]1C(=O)N2C(C(=O)O)=C(SC3CN(c4nc(C(=O)NCCN)cs4)C3)[C@H](C)[C@H]12 [Example 61, (1R,5S,6S)-2-{1-[4-((2-aminoethyl)carbamoyl)-1,3-thiazol-2-yl]azetidin-3-yl}thio-6-[(R)-1-hydroxyethyl]-1-methylcarbapen-2-em-3-carboxylic acid] | 1.79 mg/kg
0.39 µg/mL | 0.05 µg/mL | 0.2 µg/mL | 27900 ng·h/mL | 52800 ng/mL | 11.4 min | C[C@@H](O)[C@H]1C(=O)N2C(C(=O)[O-])=C(SC3CN(c4nc(C(=O)N5CCOCC5)co4)C3)[C@H](C)[C@H]12.[Na+] [Example 76, (1R,5S,6S)-2-[1-(4-morpholinocarbonyl-1,3-oxazol-2-yl)azetidin-3-yl]thio-6-[(R)-1-hydroxyethyl]-1-methylcarbapen-2-em-3-carboxylic acid sodium salt] | 0.534 mg/kg
0.2 µg/mL (≈ 0.417 µM) | ≤ 0.012 µg/mL | 0.2 µg/mL (≈ 0.417 µM) | – | – | – | C[C@@H](O)[C@H]1C(=O)N2C(C(=O)O)=C(SC3CN(c4nc(C(=O)NC5CNC5)cs4)C3)[C@H](C)[C@H]12 [Example 59, (1R,5S,6S)-2-{1-[4-(azetidin-3-ylcarbamoyl)-1,3-thiazol-2-yl]azetidin-3-yl}thio-6-[(R)-1-hydroxyethyl]-1-methylcarbapen-2-em-3-carboxylic acid] | 1.08 mg/kg
0.2 µg/mL (≈ 0.405 µM) | ≤ 0.012 µg/mL | 0.2 µg/mL (≈ 0.405 µM) | 47400 ng·h/mL | 63900 ng/mL | 24.6 min | C[C@@H](O)[C@H]1C(=O)N2C(C(=O)O)=C(SC3CN(c4nc(C(=O)N[C@@H]5CCNC5)cs4)C3)[C@H](C)[C@H]12 [Example 58, (1R,5S,6S)-2-{1-[4-((3R)-pyrrolidin-3-ylcarbamoyl)-1,3-thiazol-2-yl]azetidin-3-yl}thio-6-[(R)-1-hydroxyethyl]-1-methylcarbapen-2-em-3-carboxylic acid] | 0.899 mg/kg
0.2 µg/mL (≈ 0.487 µM) | ≤ 0.012 µg/mL | 0.39 µg/mL (≈ 0.95 µM) | 34100 ng·h/mL | 40200 ng/mL | 27 min | C[C@@H](O)[C@H]1C(=O)N2C(C(=O)O)=C(SC3CN(c4nc(CN)cs4)C3)[C@H](C)[C@H]12 [Example 67, (1R,5S,6S)-2-[1-(4-aminomethyl-1,3-thiazol-2-yl)azetidin-3-yl]thio-6-[(R)-1-hydroxyethyl]-1-methylcarbapen-2-em-3-carboxylic acid] | 1.6 mg/kg
0.39 µg/mL (≈ 0.79 µM) | 0.025 µg/mL (≈ 0.0506 µM) | 0.39 µg/mL (≈ 0.79 µM) | 27900 ng·h/mL | 46100 ng/mL | 18 min | C[C@@H](O)[C@H]1C(=O)N2C(C(=O)O)=C(SC3CN(c4nc(C(=O)N5CCNCC5)cs4)C3)[C@H](C)[C@H]12 [Example 60, (1R,5S,6S)-2-{1-[4-(piperazine-1-carbonyl)-1,3-thiazol-2-yl]azetidin-3-yl}thio-6-[(R)-1-hydroxyethyl]-1-methylcarbapen-2-em-3-carboxylic acid] | 1.41 mg/kg
0.2 µg/mL (≈ 0.405 µM) | 0.025 µg/mL (≈ 0.0506 µM) | 0.2 µg/mL (≈ 0.405 µM) | 45300 ng·h/mL | 48200 ng/mL | 22.8 min | C[C@@H](O)[C@H]1C(=O)N2C(C(=O)O)=C(SC3CN(c4nc(C(=O)N[C@H]5CCNC5)cs4)C3)[C@H](C)[C@H]12 [Example 57, (1R,5S,6S)-2-{1-[4-((3S)-pyrrolidin-3-ylcarbamoyl)-1,3-thiazol-2-yl]azetidin-3-yl}thio-6-[(R)-1-hydroxyethyl]-1-methylcarbapen-2-em-3-carboxylic acid] | 0.855 mg/kg
